Data taken from patent US20040034216A1, “3-Nitrogen-6,7-dioxygen steroids and uses related thereto” (priority 2003, published 2004).
Where two headings read alike, the source gives them in different places.

What was measured:
[1] = system: Jurkat clone E6.1 cells; assay: Antigen-induced calcium flux in anti-CD3 stimulated Jurkat cells (Fura 2AM); assay type: cell-based; conditions: anti-CD3 mAb stimulated Jurkat clone E6.1 cells; for inhibition at 20 µM: Homo sapiens, Jurkat, read-out: Calcium (% inhibition at 20 μM), 20 μM
From the text: Elevation of cytoplasmic calcium concentration is a common and crucial event which follows the activation of many types of cell surface receptors. Increases in intracellular calcium that occur following agonist activation of inositol lipid hydrolysis are the results of calcium release from the endoplasmic reticulum and the influx of calcium through the plasma membrane. Increases in cytosolic calcium concentration are involved in many important cellular responses in the inflammatory process including adhesion, motility, gene expression, proliferation, and degranulation. Changes in intracellular calcium concentrations can affect both short and long term cellular responses. An assay method to evaluate a test compound's impact on calcium flux is provided as follows.
The resulting supernatants are discarded and each pellet is washed in 10 mL HBSS. Cell suspensions are accumulated and centrifuged for 5 minutes at 900 RPM to form a cell pellet. The resulting supernatant is discarded and the pellet is resuspended in HBSS at 1×10^7cells/mL. The cell suspension is transferred to a 20 mm petri dish and incubated at 37° C., 5% CO2 for 20 minutes.
One volume of Fura 2AM is mixed to one volume of detergent Pluronic F127. Cells are labeled with 4 μL of probe solution to each mL of cell suspension. The petri dish is wrapped in aluminum foil to protect from light and placed on a plate shaker for 30 minutes at room temperature.
The following steps are done in the laminar flow hood with the fluorescent lights turned off. The petri dish is removed from the shaker and the labeled cell suspension is transferred to a 15 mL conical tube and washed twice with HBSS as above. The cell pellet is resuspended in 12 mL HBSS and left wrapped in foil for 30 minutes at room temperature. The labeled cell suspension is aliquoted (100 μL/well) into a Dynex 96 well white opaque tissue culture plate. […] Selected compounds were tested for dose related activity. Test samples and activator (anti-CD3 mAb at final concentration of 4 μg/mL, PharMingen) are added manually (50 μL), such that the minimum time to acquire the first data point after stimulation is approximately 30 seconds. The calcium influx response to anti-CD3 mAb is measured as an “end point” assay. The entire plate is read in 100 seconds using a kinetic of 1 second per well.
The plate is read before the addition of anti-CD3 to monitor non-specific effect of samples/drugs. Fluorescence emission is measured at 510 nm with excitation alternating between 340 and 380 every second using an excitation/emission filter pair. Data from these dual wavelengths are represented as a ratio of 2 excitations wavelengths. This ratio is independent of intracellular dye and cell concentrations, enabling real comparison between experiments.

[2] = system: Rat Mast Cell Line (RBL-2H3); assay: Antigen-induced release of hexosaminidase from a rat mast cell line (RBL-2H3); assay type: cell-based; conditions: tested at 0.3, 3, 10 and 30 μM, read-out: Hex IC50
Experimental: The anti-allergic effects of a compound of the present invention was evaluated by measuring its effect on antigen-induced secretion of hexosaminidase from a passively sensitized rat mast cell line. The ability of a test compound to inhibit the release of mast cell granule contents, e.g., histamine and hexosaminidase, is indicative of the anti-allergy and/or anti-asthma activity of the compound. Hexosaminidase is released from the mast cell granule along with histamine and other mediators during antigen challenge. The test is performed as follows.
RBL-2H3 cells are grown in culture and passively sensitized for 1 hour at 37° C. to dinitrophenol (DNP) using anti-human-DNP (IgE). Cells are incubated with test compound for 30 minutes at 37° C. and stimulated with 0.5 μg/ml DNP-HSA (antigen) for 30 minutes. Aliquots of the supernatant are removed and used to measure the amount of hexosaminidase released during challenge with the antigen. The amount of hexosaminidase present in the supernatant is determined colorimetrically by monitoring the enzymatic metabolism of p-nitrophenyl-N-acetyl-β-D-glucosaminide (p-NAG) over a period of 60 minutes at 405 nm. The effect of each test compound is determined as a percentage of the antigen-induced response (minus background release) obtained in the presence of DMSO alone. These values are used to determine the degrees of inhibition of antigen-induced hexosaminidase release from the cells.

[3] = system: sensitized Brown Norway rats; assay: Ovalbumin-induced accumulation of inflammatory cells in lung lavage fluid (allergen-induced lung inflammation); assay type: in vivo, rat; conditions: 1 mg/kg/day for 4 days, p.o., corn oil; lung lavage fluid
Experimental: The ability of a compound to inhibit the allergen-induced accumulation of inflammatory cells such as eosinophils and neutrophils in the lavage fluid obtained from sensitized animals is indicative of that compound's anti-asthma activity. […] The test is conducted as follows.
Male Brown Norway rats are sensitized to ovalbumin by single intraperitoneal injection of 1 mg ovalbumin adsorbed to 100 mg […] (alum) in 1 ml sterile saline (saline control rats receive only sterile saline) on day 1, and allowed to sensitize until day 21. […] Rats are challenged with 0.5% ovalbumin in saline generated using a Devillbis nebulizer for 60 min on day 21.
Forty-eight hrs after challenge, animals are sacrificed with an overdose of intraperitoneally-delivered sodium pentobarbitol and the lungs are lavaged with cold 2×7 ml phosphate buffered saline. The recovered lavage fluid is placed on ice. The bronchoalveolar lavage fluid is centrifuged and the supernatant removed. The pellet is resuspended in phosphate buffered saline at 4° C. Cytospins are prepared and stained for differentiation and enumeration of cell types.
Test compound was administered in 300 μl corn oil (Tables 7 and 8) or water (Table 9), which were used as vehicles. Control animals received 300 μl corn oil or water alone, i.e., no drug. […] A negative value in Table 7, 8, or 9 indicates an exacerbation of the effect over the control animal.

[4] = Rattus norvegicus, RBL-2H3, inhibition of antigen (DNP-HSA)-induced hexosaminidase release

SMILES: C/C=C1/CCC2C3C(CC[C@]12C)[C@@]1(C)CCC(N2CCCCC2)CC1[C@@H](O)[C@@H]3O (stereo partly shown) [Compound 110]
- inhibition at 20 µM [1]: 39.7%
- IC50 [2, 4]: 10.9 µM

SMILES: C/C=C1/CCC2C3C(CC[C@]12C)[C@@]1(C)CCC(NC)CC1[C@@H](O)[C@@H]3O (stereo partly shown) [Compound 113]
- inhibition at 20 µM [1]: 45%
- IC50 [2, 4]: 9.8 µM

SMILES: CC=C1CCC2C3C(O)C(O)C4CC(NCCCCC)CCC4(C)C3CCC12C.Cl (stereo not shown) [Compound 115]
- Calcium (% inhibition at 20 μM) [1]: 40.0%

SMILES: CC(=O)O.CC=C1CCC2C3C(O)C(O)C4CC(NC5CCCC5)CCC4(C)C3CCC12C (stereo not shown) [Compound 116]
- Calcium (% inhibition at 20 μM) [1]: 60.9%

SMILES: CC=C1CCC2C3C(O)C(O)C4CC(NCCNCCC)CCC4(C)C3CCC12C (stereo not shown) [Compound 119]
- IC50 ([2]; inhibition of antigen (DNP-HSA)-induced hexosaminidase release): 6.1 µM

SMILES: CC=C1CCC2C3C(O)C(O)C4CC(NCCN(C)C)CCC4(C)C3CCC12C.Cl.Cl (stereo not shown) [Compound 120]
- Calcium (% inhibition at 20 μM) [1]: 44.0%

SMILES: CC=C1CCC2C3C(O)C(O)C4CC(NCCNCCO)CCC4(C)C3CCC12C.Cl.Cl (stereo not shown) [Compound 124]
- Calcium (% inhibition at 20 μM) [1]: 21.0%
- % inhibition of eosinophils [3]: −55%
- % inhibition of lymphocytes [3]: −26%
- % inhibition of neutrophils [3]: −76%

SMILES: CC=C1CCC2C3C(O)C(O)C4CC(Nc5cccc(C)c5)CCC4(C)C3CCC12C.Cl (stereo not shown) [Compound 125]
- Calcium (% inhibition at 20 μM) [1]: 5.7%

SMILES: CC=C1CCC2C3C(O)C(O)C4CC(Nc5ccc(O)cc5)CCC4(C)C3CCC12C.Cl (stereo not shown) [Compound 126]
- Calcium (% inhibition at 20 μM) [1]: 45.0%

SMILES: C=C1CCC2C3C(CC[C@]12C)[C@@]1(C)CC[C@@H](NC(C)=O)CC1[C@@H](O)[C@@H]3O (stereo partly shown) [Compound 131]
- inhibition at 20 µM [1]: 9.9%
- IC50 [2, 4]: 14.1 µM

SMILES: C=C1CCC2C3C(CC[C@]12C)[C@@]1(C)CC[C@@H](NS(=O)(=O)C(C)C)CC1[C@@H](O)[C@@H]3O (stereo partly shown) [Compound 133]
- % inhibition of eosinophils [3]: −43%
- % inhibition of lymphocytes [3]: 28%
- % inhibition of neutrophils [3]: 40%

SMILES: C=C1CCC2C3C(CC[C@]12C)[C@@]1(C)CC[C@@H](NC(=O)Nc2ccccc2)CC1[C@@H](O)[C@@H]3O (stereo partly shown) [Compound 137]
- inhibition at 20 µM [1]: 13%
- IC50 [2, 4]: 14.8 µM

SMILES: C=C1CCC2C3C(CC[C@]12C)[C@@]1(C)CC[C@@H](NC(=O)NCCC)CC1[C@@H](O)[C@@H]3O (stereo partly shown) [Compound 138]
- Calcium (% inhibition at 20 μM) [1]: 9.0%
- % inhibition of eosinophils [3]: −52%
- % inhibition of lymphocytes [3]: 33%
- % inhibition of neutrophils [3]: 35%

SMILES: COc1ccc(CNC2CCC3(C)C(C2)C(O)C(O)C2C4=C(CCC23)C(C)(C)CC4)cc1OC.Cl (stereo not shown) [Compound 142]
- % inhibition of lymphocytes [3]: −42%
- % inhibition of neutrophils [3]: −1%

SMILES: CCC1(C)CCC2=C1CCC1C2C(O)C(O)C2CC(NCc3ccccc3)CCC21C.Cl (stereo not shown) [Compound 146]
- % inhibition of eosinophils [3]: 8%
- % inhibition of lymphocytes [3]: −27%
- % inhibition of neutrophils [3]: 24%

SMILES: CCC1(C)CCC2=C1CCC1C2C(O)C(O)C2CC(NCc3ccccc3)CCC21C.Cl (stereo not shown) [Compound 147]
- % inhibition of eosinophils [3]: 40%
- % inhibition of lymphocytes [3]: 36%
- % inhibition of neutrophils [3]: 58%

SMILES: COC1C(OC)C2CC(N)CCC2(C)C2CCC3=C(CCC3(C)C)C12.Cl (stereo not shown) [Compound 148]
- Calcium (% inhibition at 20 μM) [1]: 6.6%
